Molecules are shown by their SMILES.

Sequence of DLK (Q12852 1-520): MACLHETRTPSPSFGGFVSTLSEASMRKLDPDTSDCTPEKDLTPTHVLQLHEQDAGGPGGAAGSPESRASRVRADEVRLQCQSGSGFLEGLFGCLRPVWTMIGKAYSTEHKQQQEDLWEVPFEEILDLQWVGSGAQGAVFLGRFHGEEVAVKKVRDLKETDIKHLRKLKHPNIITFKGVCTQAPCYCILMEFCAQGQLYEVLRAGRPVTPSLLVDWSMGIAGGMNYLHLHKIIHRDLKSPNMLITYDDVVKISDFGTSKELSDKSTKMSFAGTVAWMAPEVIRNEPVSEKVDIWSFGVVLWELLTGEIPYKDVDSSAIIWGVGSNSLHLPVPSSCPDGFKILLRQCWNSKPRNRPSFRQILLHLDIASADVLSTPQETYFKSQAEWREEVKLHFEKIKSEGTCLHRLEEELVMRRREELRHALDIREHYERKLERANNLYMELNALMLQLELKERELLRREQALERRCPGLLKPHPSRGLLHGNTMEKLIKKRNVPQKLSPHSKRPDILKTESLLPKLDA

The assay concerns the target DLK (Homo sapiens (Human), UniProt Q12852). Nature of the assay: DLK TR-FRET Inhibition Assay. It is filed as biochemical. Conditions: N-terminally GST-tagged DLK (catalytic domain amino acid 1-520), MKK4 K131M substrate, 30 μM ATP; read-out: DLK HTRF Ki. The protocol: DLK kinase reactions (20 μL) containing 5 nM N-terminally GST-tagged DLK (catalytic domain amino acid 1-520) (Carna Bioscience), 40 nM N-terminally HIS tagged MKK4 K131M substrate, and 30 μM ATP in kinase reaction buffer (50 mM HEPES, pH 7.5, 0.01% Triton X-100, 0.01% Bovine γ-Globulins, 2 mM DTT, 10 mM MgCl2 and 1 mM EGTA), and testing compound 1:3 serial diluted starting at 20 uM were incubated at ambient temperature for 60 minutes in 384 well OptiPlate (Perkin Elmer). To quench kinase reactions and detect phosphorylated MKK4, 15 μL of TR-FRET antibody mixture containing 2 nM anti-phosphorylated MKK4 labeled with Europium cryptate (Cisbio) and 23 nM anti-HIS labeled with D2 (Cisbio) in detection buffer (25 mM Tris pH 7.5, 100 mM NaCl, 100 mM EDTA, 0.01% Tween-20, and 200 mM KF) was added to the reaction mixture. The detection mixture was incubated for 3 hours at ambient temperature and the TR-FRET was detected with an EnVision multilabel plate reader (Perkin-Elmer) using the LANCE/DELFIA Dual Enh label from Perkin-Elmer (excitation filter: UV2 (TRF) 320 and emission filters: APC 665 and Europium 615).
As to `CC1(C)OCCn2c1nc1c(N3C[C@H]4CCC(F)(F)[C@H]4C3)nc(-c3cnc(N)nc3)nc12` (racemic) [Example 15, (±)-5-(4-((cis)-4,4-difluorohexahydrocyclopenta[c]-pyrrol-2(1H)-yl)-6,6-dimethyl-8,9-dihydro-6H-[1,4]oxazino[4,3-e]purin-2-yl)pyrimidin-2-amine], the Ki was determined as 360 nM.
Turning to `CC[C@@]1(C)OCCn2c1nc1c(N3CC4CC3C4)nc(-c3cnc(N)nc3)nc12` (single isomer, unassigned) [Example 93], the Ki was 131 nM.
`CC[C@]1(C)OCCn2c1nc1c(N3CC4CC3C4)nc(-c3cnc(N)nc3)nc12` (single isomer, unassigned) [Example 94]: the Ki is 281 nM.
Under `C[C@@H]1COC(C)(C)c2nc3c(N4CC5CC4C5)nc(-c4cnc(N)nc4)nc3n21` (single isomer, unassigned) [Example 96] stands 42 nM; under `C[C@H]1COC(C)(C)c2nc3c(N4CC5CC4C5)nc(-c4cnc(N)nc4)nc3n21` (single isomer, unassigned) [Example 97], 62 nM.
The figure for `Nc1ncc(-c2nc(N3CC4CC3C4)c3nc4n(c3n2)CCO[C@H]4C(F)(F)F)cn1` (single isomer, unassigned) [Example 98] is 93.8 nM.
On to `Nc1ncc(-c2nc(N3CC4CC3C4)c3nc4n(c3n2)CCO[C@@H]4C(F)(F)F)cn1` (single isomer, unassigned) [Example 99], for which the Ki was 866 nM.
Turning to `C[C@@H]1COC(C)(C)c2nc3c(C4CC4)nc(-c4cnc(N)nc4)nc3n21` (single isomer, unassigned) [Example 101], the Ki was 102 nM.
Turning to `C[C@H]1COC(C)(C)c2nc3c(C4CC4)nc(-c4cnc(N)nc4)nc3n21` (single isomer, unassigned) [Example 102], the Ki is 157 nM.
As for `C[C@]1(C2CC2)OCCn2c1nc1c(C3CC3)nc(-c3cnc(N)nc3)nc12` (single isomer, unassigned) [Example 105], the Ki is 211 nM.
In the case of `C[C@@]1(C2CC2)OCCn2c1nc1c(C3CC3)nc(-c3cnc(N)nc3)nc12` (single isomer, unassigned) [Example 106], the Ki came to 385 nM.
Under `C[C@@H]1OCCn2c1nc1c(N3CC4CC3C4)nc(-c3cnc(N)nc3)nc12` (single isomer, unassigned) [Example 107] stands 59.7 nM.
With `C[C@H]1OCCn2c1nc1c(N3CC4CC3C4)nc(-c3cnc(N)nc3)nc12` (single isomer, unassigned) [Example 108], the Ki is 239 nM.
Regarding `C[C@@H]1Cn2c(nc3c(N4CC5CC4C5)nc(-c4cnc(N)nc4)nc32)C(C)(C)O1` (single isomer, unassigned) [Example 138], the Ki was 82.5 nM.
Take `C[C@H]1Cn2c(nc3c(N4CC5CC4C5)nc(-c4cnc(N)nc4)nc32)C(C)(C)O1` (single isomer, unassigned) [Example 139]: the Ki came out at 149 nM.
Consider `CO[C@@H]1CC2CC1CN2c1nc(-c2cnc(N)nc2)nc2c1nc1n2CCOC1(C)C` (single isomer, unassigned) [Example 140], for which the Ki was found to be 72.7 nM.
Consider `CO[C@H]1CC2CC1CN2c1nc(-c2cnc(N)nc2)nc2c1nc1n2CCOC1(C)C` (single isomer, unassigned) [Example 141], for which the Ki was found to be 392 nM.
With `CC1(C)OCCn2c1nc1c(N3CC4CC3C[C@H]4F)nc(-c3cnc(N)nc3)nc12` (single isomer, unassigned) [Example 142], the Ki is 216 nM.
Turning to `CC1(C)OCCn2c1nc1c(N3CC4CC3C[C@@H]4F)nc(-c3cnc(N)nc3)nc12` (single isomer, unassigned) [Example 143], the Ki was 223 nM.
On to `COCC1CCCN1c1nc(-c2cnc(N)nc2)nc2c1nc1n2CCOC1(C)C` (stereo not shown) [Example 1, 5-(4-(2-(methoxymethyl)pyrrolidin-1-yl)-6,6-dimethyl-8,9-dihydro-6H-[1,4]oxazino[4,3-e]purin-2-yl)pyrimidin-2-amine], for which the Ki was found to be 392 nM.
As to `CC1(C)OCCn2c1nc1c(N3CC(F)C3)nc(-c3cnc(N)nc3)nc12` [Example 2, 5-[1-(3-Fluoro-azetidin-1-yl)-8,8-dimethyl-5,6-dihydro-8H-7-oxa-2,4,4b,9-tetraaza-fluoren-3-yl]-pyrimidin-2-ylamine], the Ki came to 391 nM.
Under `Cc1c[nH]c2ncc(-c3nc(N4CC5CC4C5)c4nc5n(c4n3)CCOC5(C)C)cc12` [Example 3, 1-(2-Aza-bicyclo[2.2.1]hex-2-yl)-8,8-dimethyl-3-(3-methyl-1H-pyrrolo[2,3-b]pyridin-5-yl)-5,6-dihydro-8H-7-oxa-2,4,4b,9-tetraaza-fluorene] stands 4.92 nM; under `Cc1c[nH]c2ncc(-c3nc(N4CC(F)C4)c4nc5n(c4n3)CCOC5(C)C)cc12` [Example 4, 1-(3-Fluoro-azetidin-1-yl)-8,8-dimethyl-3-(3-methyl-1H-pyrrolo[2,3-b]pyridin-5-yl)-5,6-dihydro-8H-7-oxa-2,4,4b,9-tetraaza-fluorene], 9.74 nM.
As to `CC1(C)OCCn2c1nc1c(N3CC4CC4C3)nc(-c3cnc(N)nc3)nc12` (stereo not shown) [Example 5, 5-[1-(3-Aza-bicyclo[3.1.0]hex-3-yl)-8,8-dimethyl-5,6-dihydro-8H-7-oxa-2,4,4b,9-tetraaza-fluoren-3-yl]-pyrimidin-2-ylamine], the Ki was determined as 328 nM.
As to `CC1(C)OCCn2c1nc1c(N3C[C@@H]4CC(F)(F)C[C@@H]4C3)nc(-c3cnc(N)nc3)nc12` [Example 6], the Ki was determined as 727 nM.
Under `CC1(C)OCCn2c1nc1c(N3CCC4CC43)nc(-c3cnc(N)nc3)nc12` (stereo not shown) [Example 7, 5-[1-(2-Aza-bicyclo[3.1.0]hex-2-yl)-8,8-dimethyl-5,6-dihydro-8H-7-oxa-2,4,4b,9-tetraaza-fluoren-3-yl]-pyrimidin-2-ylamine] stands 199 nM; under `CC1(C)OCCn2c1nc1c(N3CCC4(COC4)C3)nc(-c3cnc(N)nc3)nc12` [Example 8, 5-[8,8-Dimethyl-1-(2-oxa-6-aza-spiro[3.4]oct-6-yl)-5,6-hydro-8H-7-oxa-2,4,4b,9-tetraaza-fluoren-3-yl]-pyrimidin-2-ylamine], 469 nM; under `CC1(C)OCCn2c1nc1c(N3CC4CC(F)(F)C4C3)nc(-c3cnc(N)nc3)nc12` (stereo not shown) [Example 10, 5-[1-(6,6-Difluoro-3-aza-bicyclo[3.2.0]hept-3-yl)-8,8-dimethyl-5,6-dihydro-8H-7-oxa-2,4,4b,9-tetraaza-fluoren-3-yl]-pyrimidin-2-ylamine], 157 nM.
For `CC1(C)OCCn2c1nc1c(N3CC4CC3CC4(F)F)nc(-c3cnc(N)nc3)nc12` (stereo not shown) [Example 11], the Ki stood at 262 nM.
Regarding `CC1(C)OCCn2c1nc1c(N3CCC4(CCOC4)C3)nc(-c3cnc(N)nc3)nc12` (stereo not shown) [Example 12, 5-[8,8-Dimethyl-1-(2-oxa-7-aza-spiro[4.4]non-7-yl)-5,6-dihydro-8H-7-oxa-2,4,4b,9-tetraaza-fluoren-3-yl]-pyrimidin-2-ylamine], the Ki stood at 584 nM.
As to `CC1(C)OCCn2c1nc1c(N3CC4CCOC4C3)nc(-c3cnc(N)nc3)nc12` (stereo not shown) [Example 14, 5-[1-(Hexahydro-furo[2,3-c]pyrrol-5-yl)-8,8-dimethyl-5,6-dihydro-8H-7-oxa-2,4,4b,9-tetraaza-fluoren-3-yl]-pyrimidin-2-ylamine], the Ki was 990 nM.
The figure for `CC1(C)OCCn2c1nc1c(N3CCCC34CCOC4)nc(-c3cnc(N)nc3)nc12` (stereo not shown) [Example 16, 5-[8,8-Dimethyl-1-(7-oxa-1-aza-spiro[4.4]non-1-yl)-5,6-dihydro-8H-7-oxa-2,4,4b,9-tetraaza-fluoren-3-yl]-pyrimidin-2-ylamine] is 320 nM; for `CC1(C)OCCn2c1nc1c(N3CCCC3)nc(-c3cnc(N)nc3)nc12` [Example 18, 5-(8,8-Dimethyl-1-pyrrolidin-1-yl-5,6-dihydro-8H-7-oxa-2,4,4b,9-tetraaza-fluoren-3-yl)-pyrimidin-2-ylamine] it is 402 nM; for `Cc1n[nH]c2ncc(-c3nc(N4CC5CC4C5)c4nc5n(c4n3)CCOC5(C)C)cc12` [Example 19, 1-(2-Aza-bicyclo[2.1.1]hex-2-yl)-8,8-dimethyl-3-(3-methyl-1H-pyrazolo[3,4-b]pyridin-5-yl)-5,6-dihydro-8H-7-oxa-2,4,4b,9-tetraaza-fluorene] it is 493 nM.
`CCc1n[nH]c2ncc(-c3nc(N4CC5CC4C5)c4nc5n(c4n3)CCOC5(C)C)cc12` [Example 20, 1-(2-Aza-bicyclo[2.1.1]hex-2-yl)-3-(3-ethyl-1H-pyrazolo[3,4-b]pyridin-5-yl)-8,8-dimethyl-5,6-dihydro-8H-7-oxa-2,4,4b,9-tetraaza-fluorene]: the Ki turned out to be 161 nM.
For the compound `CCOc1cc(-c2nc(N3CC4CC3C4)c3nc4n(c3n2)CCOC4(C)C)cnc1N` [Example 21, 5-[1-(2-Aza-bicyclo[2.1.1]hex-2-yl)-8,8-dimethyl-5,6-dihydro-8H-7-oxa-2,4,4b,9-tetraaza-fluoren-3-yl]-3-ethoxy-pyridin-2-ylamine], the Ki was found to be 279 nM.
As for `CC(C)Oc1cc(-c2nc(N3CC4CC3C4)c3nc4n(c3n2)CCOC4(C)C)cnc1N` [Example 22, 5-[1-(2-Aza-bicyclo[2.1.1]hex-2-yl)-8,8-dimethyl-5,6-dihydro-8H-7-oxa-2,4,4b,9-tetraaza-fluoren-3-yl]-3-isopropoxy-pyridin-2-ylamine], the inhibition constant (Ki) is 406 nM.

The values are drawn from patent US10131675B2 (Genentech, Inc., priority 2015, dated 2018).
